The values below come from patent publication US10280416B1, “Magnetic ionic liquids, methods of making and uses thereof as solvents in the extraction and preservation of nucleic acids” (The University of Toledo, priority 2015, dated 2019).

Data set [1] has as its target T1, albumin from chicken egg white (Gallus gallus, UniProt P01012).
T1 construct: albumin from chicken egg white; purchased Sigma-Aldrich (St. Louis, Mo., USA); host or cells: chicken egg white (natural source)
T1 sequence (P01012 1-386): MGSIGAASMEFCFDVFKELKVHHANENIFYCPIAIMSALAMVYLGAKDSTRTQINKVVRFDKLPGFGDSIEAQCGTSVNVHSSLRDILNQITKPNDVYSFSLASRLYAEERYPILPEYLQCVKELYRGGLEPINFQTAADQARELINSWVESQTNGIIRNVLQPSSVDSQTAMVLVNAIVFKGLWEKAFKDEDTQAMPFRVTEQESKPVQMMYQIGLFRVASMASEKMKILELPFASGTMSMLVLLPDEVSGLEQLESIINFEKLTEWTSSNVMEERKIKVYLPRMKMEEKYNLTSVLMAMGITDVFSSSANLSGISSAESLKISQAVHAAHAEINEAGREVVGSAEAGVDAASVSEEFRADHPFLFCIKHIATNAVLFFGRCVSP
Nature of the data set: MIL-based DDE, coextraction of protein from stDNA/albumin matrix. The following applies: pH 4.4; albumin 3.4 μM, stDNA 4.17 nM. How it is done: High performance liquid chromatography with UV detection was performed on a LC-20A liquid chromatograph (Shimadzu, Japan) consisting of two LC-20AT pumps, a SPD-20 UV/vis detector, and a DGU-20A3 degasser. Chromatographic separations were performed on a 35 mm×4.6 mm i.d.×2.5 μm TSKgel DEAE-NPR anion exchange column with a 5 mm×4.6 mm i.d.×5 μm TSKgel DEAE-NPR guard column from Tosoh Bioscience (King of Prussia, Pa.). The column was equilibrated with a mobile phase composition of 50:50 (A) 20 mM Tris-HCl (pH 8), and (B) 1 M NaCl/20 mM Tris-HCl (pH 8). For stDNA analysis, gradient elution was performed beginning with 50% mobile phase B and increased to 100% B over 10 min. In the separation of ssDNA as well as DNA and albumin, the column was first equilibrated with 20 mM Tris-HCl followed by gradient elution from 0% to 50% B over 10 min and then 50% to 100% B over 5 min. A flow rate of 1 mL min−1 was used for all HPLC separations. DNA and albumin were detected at 260 and 280 nm, respectively.
Sample matrices containing either metal ions or protein (albumin) were prepared from stock solutions. A sample solution containing 388 mM NaCl, 153 mM KCl, 38.1 mM CaCl2.2H2O, 28.3 mM MgCl2.6H2O, and 4.17 nM stDNA was extracted in triplicate using MIL-based DDE for all three MILs. For experiments involving protein as a matrix component, the samples were prepared at an albumin concentration of 3.4 μM and stDNA concentration of 4.17 nM with the pH varied from 3.5 to 8.

Data set [2] in a line: effective magnetic moment, Evans magnetic susceptibility balance. As to conditions: measured at 295K. The format is physicochemical. The text has this: The paramagnetic properties of MILs provide a unique advantage over conventional ILs by permitting control over substrate motion through the application of an external magnetic field. […] The general expression for molar magnetic susceptibility using the Evans balance is shown in eq 1:
[formula] where XM represents the molar magnetic susceptibility, Cbal is the balance calibration constant, L corresponds to the length of the sample in the tube, M is the molecular weight of the compound being measured, R is the instrument reading for the sample in the tube, Ro is the instrument reading for the empty sample tube, and m is the mass of sample introduced into the Evan's balance. From XM, it is possible to calculate μeff according to eq 2: μeff=2.83√{square root over (XMT)} (2) where T is the absolute temperature. […] In order to increase the magnetic susceptibility of MILs, multiple paramagnetic iron(III) centers were incorporated into the MIL structure. […] The iron(III)-based MILs represent an inexpensive and useful alternative to MILs based on lanthanides, such as Dy(III) (μeff=10.6 μB). Moreover, the higher response of MILs 10 and 11 toward magnetic fields enables the use of smaller magnets with lower field strength for their manipulation in solution, which is useful in miniaturized magnet-based systems.

Data set [3] can be described thus: solubility of MILs in water. The format is physicochemical. The text has this: Independent of the substituent functional groups imparted by the quaternization reaction, MILs 1-3 were immiscible with water at compositions as low as 0.1% (w/v) MIL. The hydrophobic properties of the monocationic MILs are thus useful for applications such as aqueous liquid-liquid microextractions, where extremely low phase ratios of extraction solvent are employed.

Data set [4] is described as follows: solubility of MILs in hexanes. The format is physicochemical.
Data set [5] is described as follows: thermal stability by thermal gravimetric analysis (TGA). The following applies: temperature at which 5 wt % loss of MIL is observed.

For `CCCCCCCCCCCCCCCCn1c[n+](CCCCCCCCCCCC[n+]2cn(CCCCCCCCCCCCCCCC)c3ccccc32)c2ccccc21.O=S(=O)([N-]S(=O)(=O)C(F)(F)F)C(F)(F)F.[Cl][Fe-]([Cl])([Cl])[Br]` [MIL 6], the albumin extraction efficiency in data set [1] is listed as approximately 40%. The “μeff (effective magnetic moment)” value in data set [2] stood at 5.69 μB. In addition, the solubility in water entry in data set [3] is “Id”.
For `O=S(=O)([N-]S(=O)(=O)C(F)(F)F)C(F)(F)F.[Cl][Fe-]([Cl])([Cl])[Br].c1ccc(Cn2c[n+](CCCCCCCCCCCC[n+]3cn(Cc4ccccc4)c4ccccc43)c3ccccc32)cc1` [MIL 7], the “μeff (effective magnetic moment)” value in data set [2] was determined as 5.45 μB. Besides, the solubility in water entry in data set [3] was “I^d (Insoluble at 0.1% (w/v))”.
As for `CCCCCCCC[N+](CCCCCCCC)(CCCCCCCC)Cc1ccc(C(C)(C)C)cc1.[Cl][Fe-]([Cl])([Cl])[Br]` [MIL 3], the “μeff (effective magnetic moment)” value in data set [2] is recorded as 5.68 μB. Also, the solubility in water result in data set [3] is reported as “I^d (Insoluble at 0.1% (w/v))”.
For `CCCCCCCCCCCCCCCCn1c[n+](CCCCCCCCCCCC[n+]2ccn(Cc3ccccc3)c2)c2ccccc21.O=S(=O)([N-]S(=O)(=O)C(F)(F)F)C(F)(F)F.[Cl][Fe-]([Cl])([Cl])[Br]` [MIL 8], in that order: 5.30 μB and “I^d (Insoluble at 0.1% (w/v))”.
In data set [1], `CCCCCCCCCCCCCC[P+](CCCCCC)(CCCCCC)CCCCCC.[Cl][Fe-]([Cl])([Cl])[Cl]` [[P6,6,6,14+][FeCl4−], trihexyl(tetradecyl)phosphonium tetrachloroferrate(III), reference compound] gave an albumin extraction efficiency of approximately 40%.
“benzyltrioctylammonium bromotrichloroferrate(III) [MIL 1]”: the solubility in hexanes result in data set [4] is listed as “I”. The same compound returned an albumin extraction efficiency in data set [1] of 5.0%. Besides, the thermal stability in data set [5] was 258 °C. The “μeff (effective magnetic moment)” value in data set [2] is 5.26 μB. Besides, in data set [3], the solubility in water entry was “I^d (Insoluble at 0.1% (w/v))”.
For `CCCCCCCCCCCCCCCCn1c[n+](CCCCCCCCCCCC[n+]2cn(CCCCCCCCCCCCCCCC)c3ccccc32)c2ccccc21.[Cl][Fe-]([Cl])([Cl])[Br].[Cl][Fe-]([Cl])([Cl])[Br]` [MIL 6c], the “μeff (effective magnetic moment)” value in data set [2] was 7.58 μB. Besides, in data set [3], the solubility in water entry was “I^e (Insoluble at 0.25% (w/v))”.
Regarding `CCCCCCCC[N+](CCCCCCCC)(CCCCCCCC)Cc1cccc(OC)c1.[Cl][Fe-]([Cl])([Cl])[Br]` [MIL 2], the “μeff (effective magnetic moment)” value in data set [2] is reported as 5.60 μB. Also, the solubility in water entry in data set [3] is listed as “I^d (Insoluble at 0.1% (w/v))”.
For `CCCCCCCCSCCC[n+]1ccn(Cc2cc(Cn3cc[n+](CCCSCCCCCCCC)c3)cc(Cn3cc[n+](CCCSCCCCCCCC)c3)c2)c1.[Cl][Fe-]([Cl])([Cl])[Br].[Cl][Fe-]([Cl])([Cl])[Br].[Cl][Fe-]([Cl])([Cl])[Br]` [MIL 11], in that order: 11.76 μB and “I^e (Insoluble at 0.25% (w/v))”.
Consider `CCCCCCCCCCCCCCCCn1cc[n+](CCCCCCCCCCCC[n+]2ccn(CCCCCCCCCCCCCCCC)c2C)c1C.O=S(=O)([N-]S(=O)(=O)C(F)(F)F)C(F)(F)F.[Cl][Fe-]([Cl])([Cl])[Br]` [MIL 4b], for which the “μeff (effective magnetic moment)” value in data set [2] came out at 5.37 μB. The solubility in water entry in data set [3] is given as “I^e (Insoluble at 0.25% (w/v))”.
